Values joined by “and” are separate entries in the source; they are usually repeats but may differ in a detail not shown here. Equal values may be shown once. HELM strings list units from the 5' end as sugar, base in round brackets, then linkage (d deoxyribose, r ribose, m 2'-O-methyl, p phosphodiester). Methylation of C is not given here. [moe] = 2'-O-(2-methoxyethyl) (MOE); [cEt] = constrained ethyl (cEt); [sp] = phosphorothioate linkage
Target: HBV
Settings: ASO

| Substance | target mRNA inhibition (HepG2, 0.07 µM) | further results |
| --- | --- | --- |
| RNA1{[moe](G)[sp].[moe](A)[sp].[moe](G)[sp].[moe](G)[sp].[moe](T)[sp].[moe](G)[sp].d(A)[sp].d(A)[sp].d(G)[sp].d(C)[sp].d(G)[sp].d(A)[sp].d(A)[sp].d(G)[sp].d(T)[sp].[moe](G)[sp].[moe](C)}$$$$V2.0 | 75% and 52% |  |
| RNA1{[moe](G)[sp].[moe](A)[sp].[moe](G)[sp].[moe](G)[sp].d(C)[sp].d(A)[sp].d(T)[sp].d(A)[sp].d(G)[sp].d(C)[sp].d(A)[sp].d(G)[sp].d(C)[sp].[moe](A)[sp].[moe](G)[sp].[moe](G)[sp].[moe](A)}$$$$V2.0 | 35% |  |
| RNA1{[moe](G)[sp].[moe](A)[sp].[moe](G)[sp].[moe](T)[sp].[moe](T)[sp].d(C)[sp].d(C)[sp].d(G)[sp].d(C)[sp].d(A)[sp].d(G)[sp].d(T)[sp].d(A)[sp].d(T)[sp].[moe](G)[sp].[moe](G)[sp].[moe](A)}$$$$V2.0 | 75% and 56% |  |
| RNA1{[moe](G)[sp].[moe](A)[sp].[moe](G)[sp].d(A)[sp].d(A)[sp].d(G)[sp].d(T)[sp].d(C)[sp].d(C)[sp].d(A)[sp].d(C)[sp].d(C)[sp].d(A)[sp].[cEt](C)[sp].[cEt](G)[sp].[cEt](A)}$$$$V2.0 | 60% and 71% |  |
| RNA1{[moe](G)[sp].[moe](A)[sp].[moe](G)[sp].d(A)[sp].d(G)[sp].d(A)[sp].d(A)[sp].d(G)[sp].d(T)[sp].d(C)[sp].d(C)[sp].d(A)[sp].d(C)[sp].[cEt](C)[sp].[cEt](A)[sp].[cEt](C)}$$$$V2.0 | 38% and 23% |  |
| RNA1{[moe](G)[sp].[moe](A)[sp].[moe](G)[sp].d(G)[sp].d(C)[sp].d(A)[sp].d(T)[sp].d(A)[sp].d(G)[sp].d(C)[sp].d(A)[sp].d(G)[sp].[moe](C)[sp].[moe](A)[sp].[moe](G)[sp].[moe](G)[sp].[moe](A)}$$$$V2.0 | 66% and 57% |  |
| RNA1{[moe](G)[sp].[moe](A)[sp].[moe](G)[sp].d(G)[sp].d(C)[sp].d(A)[sp].d(T)[sp].d(A)[sp].d(G)[sp].d(C)[sp].d(A)[sp].d(G)[sp].d(C)[sp].[moe](A)[sp].[moe](G)[sp].[moe](G)}$$$$V2.0 |  | target mRNA inhibition (HepG2, 0.0092593 µM): 4%; target mRNA inhibition (HepG2, 0.0277778 µM): 24%; target mRNA inhibition (HepG2, 0.0833333 µM): 49%; target mRNA inhibition (HepG2, 0.25 µM): 67% |
| RNA1{[moe](G)[sp].[moe](A)[sp].[moe](G)[sp].d(G)[sp].d(T)[sp].d(G)[sp].d(A)[sp].d(A)[sp].d(G)[sp].d(C)[sp].d(G)[sp].d(A)[sp].[moe](A)[sp].[moe](G)[sp].[moe](T)[sp].[moe](G)}$$$$V2.0 | 57% and 54% |  |
| RNA1{[moe](G)[sp].[moe](A)[sp].[moe](G)[sp].d(G)[sp].d(T)[sp].d(G)[sp].d(A)[sp].d(A)[sp].d(G)[sp].d(C)[sp].d(G)[sp].d(A)[sp].d(A)[sp].[cEt](G)[sp].[cEt](T)[sp].[cEt](G)}$$$$V2.0 | 67% and 57% |  |
| RNA1{[moe](G)[sp].[moe](A)[sp].[moe](G)[sp].d(T)[sp].d(T)[sp].d(C)[sp].d(C)[sp].d(G)[sp].d(C)[sp].d(A)[sp].d(G)[sp].d(T)[sp].d(A)[sp].[cEt](T)[sp].[cEt](G)[sp].[cEt](G)}$$$$V2.0 | 70% and 62% |  |
| RNA1{[moe](G)[sp].[moe](A)[sp].[moe](T)[sp].[moe](G)[sp].[moe](A)[sp].d(G)[sp].d(G)[sp].d(C)[sp].d(A)[sp].d(T)[sp].d(A)[sp].d(G)[sp].d(C)[sp].d(A)[sp].[moe](G)[sp].[moe](C)}$$$$V2.0 | 45% and 31% |  |
| RNA1{[moe](G)[sp].[moe](A)[sp].d(A)[sp].d(G)[sp].d(T)[sp].d(C)[sp].d(C)[sp].d(A)[sp].d(C)[sp].d(C)[sp].d(A)[sp].[moe](C)[sp].[moe](G)[sp].[moe](A)[sp].[moe](G)[sp].[moe](T)[sp].[moe](C)}$$$$V2.0 | 66% and 49% |  |
| RNA1{[moe](G)[sp].[moe](A)[sp].d(G)[sp].d(G)[sp].d(C)[sp].d(A)[sp].d(T)[sp].d(A)[sp].d(G)[sp].d(C)[sp].d(A)[sp].[moe](G)[sp].[moe](C)[sp].[moe](A)[sp].[moe](G)[sp].[moe](G)}$$$$V2.0 | 0% |  |
| RNA1{[moe](G)[sp].[moe](A)[sp].d(G)[sp].d(G)[sp].d(T)[sp].d(G)[sp].d(A)[sp].d(A)[sp].d(G)[sp].d(C)[sp].d(G)[sp].[moe](A)[sp].[moe](A)[sp].[moe](G)[sp].[moe](T)[sp].[moe](G)}$$$$V2.0 | 51% and 46% |  |
| RNA1{[moe](G)[sp].[moe](C)[sp].[moe](A)[sp].[moe](C)[sp].d(T)[sp].d(A)[sp].d(G)[sp].d(T)[sp].d(A)[sp].d(A)[sp].d(A)[sp].d(C)[sp].d(T)[sp].[moe](G)[sp].[moe](A)[sp].[moe](G)[sp].[moe](C)}$$$$V2.0 | 55% and 47% |  |
| RNA1{[moe](G)[sp].[moe](C)[sp].[moe](A)[sp].[moe](G)[sp].[moe](A)[sp].[moe](G)[sp].d(G)[sp].d(T)[sp].d(G)[sp].d(A)[sp].d(A)[sp].d(G)[sp].d(C)[sp].d(G)[sp].d(A)[sp].[moe](A)[sp].[moe](G)}$$$$V2.0 | 65% and 68% |  |
| RNA1{[moe](G)[sp].[moe](C)[sp].[moe](A)[sp].d(G)[sp].d(T)[sp].d(A)[sp].d(T)[sp].d(G)[sp].d(G)[sp].d(A)[sp].d(T)[sp].d(C)[sp].[moe](G)[sp].[moe](G)[sp].[moe](C)[sp].[moe](A)}$$$$V2.0 | 81% and 72% |  |
| RNA1{[moe](G)[sp].[moe](G)[sp].[moe](A)[sp].[moe](G)[sp].[moe](T)[sp].[moe](T)[sp].d(C)[sp].d(C)[sp].d(G)[sp].d(C)[sp].d(A)[sp].d(G)[sp].d(T)[sp].d(A)[sp].d(T)[sp].[moe](G)[sp].[moe](G)}$$$$V2.0 |  | target mRNA inhibition (HepG2, 0.0092593 µM): 2%; target mRNA inhibition (HepG2, 0.0277778 µM): 25%; target mRNA inhibition (HepG2, 0.0833333 µM): 55%; target mRNA inhibition (HepG2, 0.25 µM): 74% |
| RNA1{[moe](G)[sp].[moe](G)[sp].[moe](C)[sp].[cEt](A)[sp].[cEt](T)[sp].d(A)[sp].d(G)[sp].d(C)[sp].d(A)[sp].d(G)[sp].d(C)[sp].d(A)[sp].d(G)[sp].[moe](G)[sp].[moe](A)[sp].[moe](T)[sp].[moe](G)}$$$$V2.0 |  | target mRNA inhibition (HepG2, 0.009375 µM): 17%; target mRNA inhibition (HepG2, 0.01875 µM): 32%; target mRNA inhibition (HepG2, 0.0375 µM): 52%; target mRNA inhibition (HepG2, 0.075 µM): 68%; target mRNA inhibition (HepG2, 0.15 µM): 77%; target mRNA inhibition (HepG2, 0.3 µM): 81% |
| RNA1{[moe](G)[sp].[moe](G)[sp].[moe](C)[sp].[moe](A)[sp].[moe](T)[sp].d(A)[sp].d(G)[sp].d(C)[sp].d(A)[sp].d(G)[sp].d(C)[sp].d(A)[sp].d(G)[sp].d(G)[sp].[moe](A)[sp].[moe](T)}$$$$V2.0 | 55% and 41% |  |
| RNA1{[moe](G)[sp].[moe](G)[sp].[moe](C)[sp].d(A)[sp].d(T)[sp].d(A)[sp].d(G)[sp].d(C)[sp].d(A)[sp].d(G)[sp].d(C)[sp].d(A)[sp].[moe](G)[sp].[moe](G)[sp].[moe](A)[sp].[moe](T)}$$$$V2.0 | 54% and 57% |  |
| RNA1{[moe](G)[sp].[moe](G)[sp].[moe](T)[sp].[moe](G)[sp].d(A)[sp].d(A)[sp].d(G)[sp].d(C)[sp].d(G)[sp].d(A)[sp].d(A)[sp].d(G)[sp].d(T)[sp].[moe](G)[sp].[moe](C)[sp].[moe](A)[sp].[moe](C)}$$$$V2.0 | 63% and 59% |  |
| RNA1{[moe](G)[sp].[moe](G)[sp].[moe](T)[sp].[moe](G)[sp].d(A)[sp].d(A)[sp].d(G)[sp].d(C)[sp].d(G)[sp].d(A)[sp].d(A)[sp].d(G)[sp].d(T)[sp].[moe](G)[sp].[moe](C)[sp].[moe](A)}$$$$V2.0 | 55% and 59% |  |
| RNA1{[moe](G)[sp].[moe](G)[sp].[moe](T)[sp].d(G)[sp].d(A)[sp].d(A)[sp].d(G)[sp].d(C)[sp].d(G)[sp].d(A)[sp].d(A)[sp].d(G)[sp].[moe](T)[sp].[moe](G)[sp].[moe](C)[sp].[moe](A)[sp].[moe](C)}$$$$V2.0 | 78% and 64% |  |
| RNA1{[moe](G)[sp].[moe](G)[sp].[moe](T)[sp].d(G)[sp].d(A)[sp].d(A)[sp].d(G)[sp].d(C)[sp].d(G)[sp].d(A)[sp].d(A)[sp].d(G)[sp].[moe](T)[sp].[moe](G)[sp].[moe](C)[sp].[moe](A)}$$$$V2.0 | 67% and 60% |  |
| RNA1{[moe](G)[sp].[moe](G)[sp].d(A)[sp].d(G)[sp].d(T)[sp].d(T)[sp].d(C)[sp].d(C)[sp].d(G)[sp].d(C)[sp].d(A)[sp].[moe](G)[sp].[moe](T)[sp].[moe](A)[sp].[moe](T)[sp].[moe](G)[sp].[moe](G)}$$$$V2.0 | 88% and 78% |  |
| RNA1{[moe](G)[sp].[moe](G)[sp].d(A)[sp].d(G)[sp].d(T)[sp].d(T)[sp].d(C)[sp].d(C)[sp].d(G)[sp].d(C)[sp].d(A)[sp].[moe](G)[sp].[moe](T)[sp].[moe](A)[sp].[moe](T)[sp].[moe](G)}$$$$V2.0 | 67% and 45% |  |
| RNA1{[moe](G)[sp].[moe](G)[sp].d(C)[sp].d(A)[sp].d(T)[sp].d(A)[sp].d(G)[sp].d(C)[sp].d(A)[sp].d(G)[sp].d(C)[sp].[moe](A)[sp].[moe](G)[sp].[moe](G)[sp].[moe](A)[sp].[moe](T)}$$$$V2.0 | 52% and 40% |  |
| RNA1{[moe](G)[sp].[moe](T)[sp].[moe](G)[sp].d(A)[sp].d(A)[sp].d(G)[sp].d(C)[sp].d(G)[sp].d(A)[sp].d(A)[sp].d(G)[sp].d(T)[sp].d(G)[sp].[cEt](C)[sp].[cEt](A)[sp].[cEt](C)}$$$$V2.0 | 74% and 84% | target mRNA inhibition (HepG2, 0.0092593 µM): 0%; target mRNA inhibition (HepG2, 0.0277778 µM): 32%; target mRNA inhibition (HepG2, 0.0833333 µM): 68%; target mRNA inhibition (HepG2, 0.25 µM): 86% |
| RNA1{[moe](G)[sp].[moe](T)[sp].d(T)[sp].d(C)[sp].d(C)[sp].d(G)[sp].d(C)[sp].d(A)[sp].d(G)[sp].d(T)[sp].d(A)[sp].[moe](T)[sp].[moe](G)[sp].[moe](G)[sp].[moe](A)[sp].[moe](T)[sp].[moe](C)}$$$$V2.0 | 45% and 58% |  |

Source: the OligoGym collection
